Source: patent US10456407B2, “Combination therapy for treating cancer” (Epizyme, Inc., priority 2015, dated 2019)
Several values for one entry are separate records, joined by “and”; a condition that tells them apart may be missing. Equal values may be shown once.

Tested on: DOHH2 cells
Test: RT2 Glucocorticoid signaling PCR array, DOHH2 cell line (Table 4b)
Assay type: cell-based
Details: DOHH2, 4 days

CCN(c1cc(-c2ccc(CN3CCOCC3)cc2)cc(C(=O)NCc2c(C)cc(C)[nH]c2=O)c1C)C1CCOCC1 [Compound 44]
ACTB Ct Values: 14.519
ADARB1 Ct Values: 31.431
AFF1 Ct Values: 23.888
AK2 Ct Values: 20.173
AMPD3 Ct Values: 26.146
ANGPTL4 Ct Values: 30.820
ANXA4 Ct Values: 24.273
ARID68 Ct Values: 23.782
ASPH Ct Values: 22.823
ATF4 Ct Values: 19.190
B2M Ct Values: 18.576
BCL6 Ct Values: 21.323
BMPER Ct Values: 39.092
CALCR Ct Values: 33.360
CEBPA Ct Values: 30.676
CEBPB Ct Values: 23.925
COL4A2 Ct Values: 34.119
CREB1 Ct Values: 22.746
CREB3 Ct Values: 24.840
CREB3L4 Ct Values: 24.110
CTGF Ct Values: 32.760
CYB561 Ct Values: 31.945
DDIT4 Ct Values: 23.508
DUSP1 Ct Values: 27.132
EDN1 Ct Values: 32.260
EHD3 Ct Values: 28.852
ERRFI1 Ct Values: 30.163
FK8PS Ct Values: 21.520
FOSL2 Ct Values: 29.872
GAPDH Ct Values: 16.197
GDPD1 Ct Values: 27.570
GHRHR Ct Values: 39.644
GLUL Ct Values: 36.671
GOT1 Ct Values: 23.126
H6PD Ct Values: 24.377
HNRPLL Ct Values: 29.151
HPRT1 Ct Values: 21.561
IL1RN Ct Values: 32.271
IL6R Ct Values: 31.962
KLF9 Ct Values: 28.439
KLF13 Ct Values: 22.420
LOX Ct Values: 32.997
MERTK Ct Values: 32.456
NFKBIA Ct Values: 22.625
NR3C1 Ct Values: 22.430
PDCD7 Ct Values: 23.417
PDGFRB Ct Values: 35.193
PDP1 Ct Values: 25.175
PER1 Ct Values: 24.717
PER2 Ct Values: 23.835
PIK3R1 Ct Values: 23.712
PLEKHF1 Ct Values: 28.946
POU2F1 Ct Values: 24.003
POU2F2 Ct Values: 22.167
RASA3 Ct Values: 27.636
RGS2 Ct Values: 24.861
RHOB Ct Values: 30.745
RPLP0 Ct Values: 14.935
SESN1 Ct Values: 23.848
SGK1 Ct Values: 27.821
SLC10A6 Ct Values: 36.435
SLC19A2 Ct Values: 24.859
SLC22A5 Ct Values: 27.992
SNTA1 Ct Values: 24.550
SPHK1 Ct Values: 28.863
SPSB1 Ct Values: 26.652
STAT5A Ct Values: 23.771
STAT5B Ct Values: 22.328
TBL1XR1 Ct Values: 20.994
TNF Ct Values: 31.849
TNFAIP3 Ct Values: 27.520
TSC22D3 Ct Values: 24.752
USP2 Ct Values: 23.684
USPS4 Ct Values: 25.892
VDR Ct Values: 26.426
VLDLR Ct Values: 27.232
ZFP36 Ct Values: 23.980
ZHX3 Ct Values: 24.611
ZNF281 Ct Values: 23.541
PPC Ct Values (array control, three lines): 18.672 and 19.142 and 18.711
RTC Ct Values (array control, three lines): 21.345 and 21.410 and 21.384
ACTB ΔCT (B2M) (normalized to B2M): −4.057
ADARB1 ΔCT (B2M) (normalized to B2M): 12.855
AFF1 ΔCT (B2M) (normalized to B2M): 5.312
AK2 ΔCT (B2M) (normalized to B2M): 1.597
AMPD3 ΔCT (B2M) (normalized to B2M): 7.570
ANGPTL4 ΔCT (B2M) (normalized to B2M): 12.244
ANXA4 ΔCT (B2M) (normalized to B2M): 5.697
ASPH ΔCT (B2M) (normalized to B2M): 4.247
ATF4 ΔCT (B2M) (normalized to B2M): 0.614
B2M ΔCT (B2M) (normalized to B2M): 0.000
BCL6 ΔCT (B2M) (normalized to B2M): 2.747
BMPER ΔCT (B2M) (normalized to B2M): 20.516
CALCR ΔCT (B2M) (normalized to B2M): 15.054
CEBPA ΔCT (B2M) (normalized to B2M): 12.100
CEBPB ΔCT (B2M) (normalized to B2M): 5.349
COL4A2 ΔCT (B2M) (normalized to B2M): 15.543
CREB1 ΔCT (B2M) (normalized to B2M): 4.170
CREB3L4 ΔCT (B2M) (normalized to B2M): 5.534
CREB3 ΔCT (B2M) (normalized to B2M): 6.264
CTGF ΔCT (B2M) (normalized to B2M): 14.184
CYB561 ΔCT (B2M) (normalized to B2M): 13.369
DDIT4 ΔCT (B2M) (normalized to B2M): 4.932
DUSP1 ΔCT (B2M) (normalized to B2M): 8.556
EDN1 ΔCT (B2M) (normalized to B2M): 13.684
EHD3 ΔCT (B2M) (normalized to B2M): 10.276
ERRFI1 ΔCT (B2M) (normalized to B2M): 11.587
FK8PS ΔCT (B2M) (normalized to B2M): 2.944
FOSL2 ΔCT (B2M) (normalized to B2M): 11.296
GAPDH ΔCT (B2M) (normalized to B2M): −2.379
GDPD1 ΔCT (B2M) (normalized to B2M): 8.994
GHRHR ΔCT (B2M) (normalized to B2M): 21.068
GLUL ΔCT (B2M) (normalized to B2M): 18.095
GOT1 ΔCT (B2M) (normalized to B2M): 4.550
H6PD ΔCT (B2M) (normalized to B2M): 5.801
